Data taken from publication PMC12281485, “High-Throughput Screening of Potent Drug-like Molecules Targeting 17β-HSD10 for the Treatment of Alzheimer’s Disease and Cancer” (ACS Chemical Biology, 2025).
Like-named read-outs stand apart in the source and are kept apart here.

Legend:
[1] = test system: HEK293 cells overexpressing 17β-HSD10; assay: LDH cytotoxicity assay; assay type: cell-based, human; conditions: 50 μM compound, 24 h, n = 3 ± SD
Description: Cell cytotoxicity was assessed via the measurement of LDH leakage into the culture medium using a commercially available kit from Pierce (Thermo Scientific cat no. 88953). This was carried out in accordance with the kit guidelines, with the activity of LDH being calculated from the change in absorbance at […]. Human embryonic kidney (HEK293) cells overexpressing 17β-HSD10 were cultured in phenol-red free media (10% FBS, 1 mM sodium pyruvate, 100 units penicillin, 0.1 mg mL^–1 streptomycin, and 2 mM L-glutamine) and seeded at a density of 10,000 cells per well (100 μL, 96-well plates). […] Treated cells were then incubated at 37 °C and CO2 (5%) for 24 h before the LDH assay was performed as per the manufacturer’s instructions. Spontaneous control (water) and maximum control (lysis buffer) were used in accordance with the kit guide. Absorbance was measured at 490 and 680 nm using the SpectraMaxM2e spectrophotometer. The measured LDH activity was used to calculate %cytotoxicity using the following equation (eq ): %cytotoxicity=(compoundtreatedLDHactivity−spontaneousLDHactivity)/(maximumLDHactivity−spontaneousLDHactivity)×100 1

[2] = Alamar Blue cell viability assay; assay type: cell-based, human; conditions: human, HEK293 cells overexpressing 17β-HSD10, 50 μM compound, n = 3 ± SD, read-out: Alamar Blue % viability (50 μM dose)
Description: Cell viability was assessed via fluorescence change using the commercially available Alamar Blue from ThermoFisher. HEK293 cells overexpressing 17β-HSD10 were cultured in phenol-red free media (10% FBS, 1 mM sodium pyruvate, 100 units penicillin, 0.1 mg mL^–1 streptomycin, and 2 mM L-glutamine) and seeded at a density of 10,000 cells per well (100 μL, 96-well plates). […] Treated cells were then incubated at 37 °C and CO2 (5%) for 24 h before the assay was performed as per the manufacturer’s instructions. Fluorescence was measured at 530 nm excitation and 590 nm emission using the SpectraMaxM2e spectrophotometer.

17β-HSD10 [3] = molecular target: T1, 17β-HSD10 (Homo sapiens, UniProt Q99714); assay: 17β-HSD10 enzyme inhibition dose-response assay (acetoacetyl-CoA/NADH, absorbance 340 nm); assay type: biochemical; conditions: for fold improvement in activity/potency over hit ESC1002082: relative to ESC1002082
T1 construct: Recombinant 17β-HSD10 was expressed and purified as previously described in Aitken et al; made in house
T1 sequence (Q99714 1-261): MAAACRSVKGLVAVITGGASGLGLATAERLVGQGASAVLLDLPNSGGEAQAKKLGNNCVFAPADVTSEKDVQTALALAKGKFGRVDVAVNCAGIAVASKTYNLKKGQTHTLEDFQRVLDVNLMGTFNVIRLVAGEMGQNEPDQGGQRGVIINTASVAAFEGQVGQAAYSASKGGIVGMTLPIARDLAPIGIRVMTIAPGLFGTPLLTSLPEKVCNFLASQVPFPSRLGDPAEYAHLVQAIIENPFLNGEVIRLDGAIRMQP
Description: Recombinant 17β-HSD10 was expressed and purified as previously described in Aitken et al.
17β-HSD10 screening was carried out as described in Aitken et al. with the exception that experiments were also conducted in clear-bottom 1536-well low-volume microplates (Corning) with a final assay volume of 20 μL. For primary screening, an endpoint assay format was adopted, in which an Echo acoustic liquid dispenser (Labcyte) was used to transfer 20 nL of either DMSO control […] or test compounds (10 μM) to the assay plate. 10 μL of the 17β-HSD10 enzyme in an assay buffer (2.5 nM) was then added to the plates using the Preddator liquid handling robot (Redd and Whyte), and plates were incubated at RT for 15 min. 10 μL of the substrate mixture (100 μM acetoacetyl-CoA and 100 μM NADH) was added with the Preddator. To start the reaction, the plates were left to incubate for 35 min at RT before the absorbance at 340 nm was read on the EnVision plate reader (PerkinElmer). For the kinetic assay format and dose-response follow-up experiments, the same protocol was adopted, except that the absorbance at 340 nm was monitored constantly for 45 min from immediately after the reaction was started.

17β-HSD10 [4] = molecular target: T1, 17β-HSD10; assay: (−)-CHANA fluorescence assay of cellular 17β-HSD10 activity; assay type: cell-based; conditions: read-out: cellular 17β-HSD10 activity mean pEC50 (converted)
Description: (−)–CHANA ((−)-cyclohexenyl amino naphthalene alcohol) is a fluorogenic probe that can be used to detect 17β-HSD10 activity in living cells. HEK293 17β-HSD10 cells were seeded at a density of 10,000 cells per well (100 μL, 96-well black plates) in phenol-red free media (10% FBS, 1 mM sodium pyruvate, 100 units penicillin, 0.1 mg mL^–1 streptomycin, and 2 mM L-glutamine). […] The fluorogenic probe (−)–CHANA was then added to each well to give a final assay concentration of 20 μM. Fluorescence was immediately measured using the FLUOstar Optima microplate reader (excitation = 380 nm, emission = 520 nm, orbital averaging = 3 mm), and the initial reaction was monitored for 3–4 h. EC50 was calculated from the control-subtracted triplicates using nonlinear regression (four parameters) of GraphPad Prism 5 software. The Final EC50 and SEM values were obtained as a mean of at least three independent measurements.

[5] = Mouse hepatocyte metabolic stability; assay type: in vitro ADME; design: k (elimination constant): unit not given here; conditions: mouse hepatocytes; for Heps category: metabolism category; for Cl (clearance): limits of quantitation 0.5 and 50; for half-life: read-out: T1/2 (half-life)
Description: Hepatocyte isolation, hepatocyte incubations for metabolic stability, plasma protein binding (PPB) experiments, and LC/MS sample analysis were carried out as previously described in Brandon et al. and MacLeod et al.
XLfit (IDBS, UK) was used to calculate the exponential decay and the rate constant (k) from the ratio of the peak area of the test compound to the internal standard at each time point. […] Verapamil, 7-ethoxycoumarin, 7-hydroxycoumarin, and phthalazine were used as positive controls to confirm acceptable assay performance. […] Values were transferred to RStudio v1.3.1093 (Posit, Boston, MA, USA) for generation of scatter plots and heatmaps using the ggplot2 package (Wickham 2016).

[6] = Table 3, chemically modified singleton hit compound series, read-out: 17β-HSD10 pIC50 (converted)
[7] = Table 4, 17β-HSD10 overexpressing HEK293 cells, CHANA fluorescence assay
[8] = Table 2, chemically modified cluster hit compounds, read-out: 17β-HSD10 pIC50 (converted)
[9] = Table 1, primary screening assay, resynthesized HTS hits, read-out: 17β-HSD10 pIC50 (converted)
[10] = Table 5, read-out: mean 17β-HSD10 pIC50 (converted)
[11] = Table 5, HEK293 17β-HSD10 cells, CHANA assay

IC50 (17β-HSD10 [3]; [6]) | EC50 (17β-HSD10 [4]; [7]) | IC50 (17β-HSD10 [3]; [8]) | Compound | LDH % toxicity (50 μM dose) [1] | viability at 24 h, 50 μM [2] | other results
40.7 nM | 228 nM |  | O=C(c1sccc1Cl)N1CCCC1c1ccccc1-c1cc(O)cc(F)c1 (racemic) [ESC1002776] | 20.00 ± 0.11% | 65.6 ± 1.67% | 
331 nM | 1790 nM |  | COc1ccc(-c2ccccc2[C@@H]2CCCN2C(=O)c2sccc2C)cc1 [ESC1002089] | 5.40 ± 0.05% | 82 ± 2.23% | fold improvement in activity/potency over hit ESC1002082 (17β-HSD10 [3]): ~3 fold
1150 nM |  |  | Cc1ccsc1C(=O)N1CCC[C@H]1c1ccccc1-c1cccnc1 [ESC1002090] |  |  | 
 | 7220 nM | 166 nM | COc1ccc(-c2ccccc2C2CCCN2C(=O)c2sccc2C)cc1 (centres unmarked) [ESC1002332] | 3.52 ± 0.01% | 87.7 ± 1.67% | 
 | 1150 nM |  | COc1cccc(-c2ccccc2C2CCCN2C(=O)c2sccc2C)c1 (centres unmarked) [ESC1002338] | 4.64 ± 0.01% | 83 ± 1.25% | IC50 (17β-HSD10 [3]; enzyme screening assay, read-out: IC50): 191 nM
933 nM |  |  | Cc1ccsc1C(=O)N1CCC[C@H]1c1ccccc1-c1cnn(C)c1 [ESC1002424] |  |  | LipE (17β-HSD10 [3]): 2.1
457 nM |  |  | COc1cccc(-c2ccccc2[C@@H]2CCCN2C(=O)c2[nH]ncc2Cl)c1 [ESC1002626] |  |  | 
58.9 nM | 138 nM |  | O=C(c1sccc1Cl)N1CCC[C@H]1c1ccccc1-c1cccc(O)c1 [ESC1002666] | 4.49 ± 0.02% | 79.3 ± 1.03% | 
20 nM | 28 nM |  | O=C(c1sccc1Cl)N1CCCC1c1ccccc1-c1cccc(O)c1 (centres unmarked) [ESC1002755] | 5.47 ± 0.04% | 85.3 ± 2.01% | IC50 (17β-HSD10 [3]; [10]): 18.6 nM; fold improvement in activity/potency over hit ESC1002082 (17β-HSD10 [3]): 40 fold; EC50 (17β-HSD10 [4]; [11]): 28 nM; k (elimination constant) [5]: 0.22; Heps category [5]: high; Cl (clearance) [5]: >50 mL/min/g liver; half-life [5]: 3.1 min
115 nM | 266 nM |  | COc1cccc(-c2ccccc2C2CCCN2C(=O)c2[nH]ncc2Cl)c1 (centres unmarked) [ESC1002757] | 5.03 ± 0.02% | 89.52 ± 0.84% | LipE (17β-HSD10 [3]): 2.76; IC50 (17β-HSD10 [3]; [10]): 105 nM; EC50 (17β-HSD10 [4]; [11]): 266 nM; k (elimination constant) [5]: 0.13; Heps category [5]: high; Cl (clearance) [5]: >50 mL/min/g liver; half-life [5]: 5.3 min
49 nM | 449 nM |  | O=C(c1sccc1Cl)N1CCCC1c1ccccc1-c1ccc(F)c(O)c1 (centres unmarked) [ESC1002775] | 2.54 ± 0.004% | 81.53 ± 0.56% | 
51.3 nM | 50 nM |  | O=C(c1sccc1Cl)N1CCCC1c1ccccc1-c1cc(O)cc(F)c1 (centres unmarked) [ESC1002801] | 5.50 ± 0.01% | 82.55 ± 0.62% | 

The remaining lines, values behind:

Compound | IC50 (17β-HSD10 [3]; [6]) | EC50 (17β-HSD10 [4]; [7]) | IC50 (17β-HSD10 [3]; [8]) | LDH % toxicity (50 μM dose) [1] | viability at 24 h, 50 μM [2] | other results
COc1cccc(-c2ccccc2C2CCCN2C(=O)c2sccc2Cl)c1 (racemic) [ESC1002432] |  |  |  | 4.24 ± 0.02% | 80.61 ± 0.78% | 
Cc1ccc(C(=O)N(CC(C)C)c2cccc(N(C)Cc3cnc[nH]3)c2)cc1 [ESC1002032] |  |  | 251 nM |  |  | 
CC(C)CN(C(=O)c1ccncc1)c1cccc(N(C)Cc2cnc[nH]2)c1 [ESC1002034] |  |  |  |  |  | IC50 (17β-HSD10 [3]; [9]): 1580 nM
COc1cccc(C(=O)N(CC(C)C)c2cccc(N(C)Cc3cnc[nH]3)c2)c1 [ESC1002038] |  |  |  |  |  | IC50 (17β-HSD10 [3]; [9]): 2000 nM
CC(C)CN(C(=O)c1ccc(Cl)cc1F)c1cccc(N(C)Cc2cnc[nH]2)c1 [ESC1002042] |  |  | 316 nM |  |  | LipE (17β-HSD10 [3]; Table 1, lipophilic efficiency): 1.46
O=C(c1ccccc1F)N1CCCc2ccc(NCc3cnc[nH]3)cc21 [ESC1002081] |  |  |  |  |  | 17β-HSD10 inhibitory activity (in words) (17β-HSD10 [3]): potency was abolished
COc1ccc(-c2ccccc2[C@@H]2CCCN2C(=O)c2sccc2C)cn1 [ESC1002161] |  |  |  |  |  | 17β-HSD10 pIC50 (17β-HSD10 [3]; Supplementary B, Table S1 and text, enantiomers): < 4.7
CC(C)CN(C(=O)C1CCCCC1)c1cccc(N(C)Cc2cnc[nH]2)c1 [ESC1002166] |  | 976 nM | 955 nM | 4.55 ± 0.02% | 78.9 ± 0.9% | 
COc1ccc(C(=O)N(CC(C)C)c2cccc(N(C)Cc3cnc[nH]3)c2)cc1 [ESC1002182] |  | 1670 nM | 331 nM | 4.73 ± 0.01% | 85.4 ± 3.61% | 
Cc1nc[nH]c1CN(C)c1cccc(N(CC(C)C)C(=O)c2ccccc2F)c1 [ESC1002204] |  | 1360 nM | 398 nM | 5.05 ± 0.01% | 96.7 ± 3.61% | IC50 (17β-HSD10 [3]; [10]): 398 nM; EC50 (17β-HSD10 [4]; [11]): 1360 nM; k (elimination constant) [5]: 0.11; Heps category [5]: high; Cl (clearance) [5]: >50 mL/min/g liver; half-life [5]: 6.2 min
CC(C)CN(C(=O)c1ccccc1F)c1cccc(N(C)Cc2ccn[nH]2)c1 [ESC1002205] |  | 3130 nM | 891 nM | 5.84 ± 0.01% | 82.52 ± 0.57% | 
COc1cccc(-c2ccccc2[C@H]2CCCN2C(=O)c2ccccc2C)c1 [ESC1002434] |  |  |  |  |  | 17β-HSD10 inhibitory activity (in words) (17β-HSD10 [3]): not tolerated
COc1ccc(C(=O)N(CC(C)C)c2cccc(N(C)Cc3c[nH]cn3)c2)c(F)c1 [ESC1002576] |  | 599 nM | 245 nM | 5.19 ± 0.01% | 79.1 ± 0.99% | 
COc1cccc(-c2ccccc2C2CCCN2C(=O)c2sccc2Cl)c1 (centres unmarked) [ESC1002606] |  |  |  | 5.09 ± 0.02% | 78 ± 1.09% | 
CC(C)CN(C(=O)c1ccccc1F)c1cccc(NCc2c[nH]cn2)c1 [ESC1002631] |  |  | 9330 nM |  |  | 
COc1cccc(-c2ccccc2C2CCCN2Cc2sccc2F)c1 (centres unmarked) [ESC1002695] |  |  |  |  |  | 17β-HSD10 inhibitory activity (in words) (17β-HSD10 [3]): lost all activity
